Results published in US12351574B2, “Selective ligands for modulation of GIRK channels” (Northeastern University, priority 2018, dated 2025).

Molecular target: T1, GIRK1/2 (UniProt P48542+P48549)
T1 sequence (P48549 1-501): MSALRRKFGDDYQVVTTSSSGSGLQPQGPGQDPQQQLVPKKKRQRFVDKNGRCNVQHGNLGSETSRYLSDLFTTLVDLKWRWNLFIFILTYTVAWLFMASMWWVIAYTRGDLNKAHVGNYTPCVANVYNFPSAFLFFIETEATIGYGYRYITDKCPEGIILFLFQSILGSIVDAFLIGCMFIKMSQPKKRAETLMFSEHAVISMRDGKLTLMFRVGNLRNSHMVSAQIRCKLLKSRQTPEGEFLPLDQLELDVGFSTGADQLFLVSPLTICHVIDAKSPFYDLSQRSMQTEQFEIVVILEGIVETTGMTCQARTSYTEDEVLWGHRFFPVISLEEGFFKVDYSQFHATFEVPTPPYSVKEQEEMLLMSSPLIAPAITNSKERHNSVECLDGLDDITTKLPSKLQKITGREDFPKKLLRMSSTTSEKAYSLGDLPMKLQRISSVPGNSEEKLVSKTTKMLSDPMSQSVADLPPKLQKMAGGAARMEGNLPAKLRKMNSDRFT
T1 sequence (P48542 1-425): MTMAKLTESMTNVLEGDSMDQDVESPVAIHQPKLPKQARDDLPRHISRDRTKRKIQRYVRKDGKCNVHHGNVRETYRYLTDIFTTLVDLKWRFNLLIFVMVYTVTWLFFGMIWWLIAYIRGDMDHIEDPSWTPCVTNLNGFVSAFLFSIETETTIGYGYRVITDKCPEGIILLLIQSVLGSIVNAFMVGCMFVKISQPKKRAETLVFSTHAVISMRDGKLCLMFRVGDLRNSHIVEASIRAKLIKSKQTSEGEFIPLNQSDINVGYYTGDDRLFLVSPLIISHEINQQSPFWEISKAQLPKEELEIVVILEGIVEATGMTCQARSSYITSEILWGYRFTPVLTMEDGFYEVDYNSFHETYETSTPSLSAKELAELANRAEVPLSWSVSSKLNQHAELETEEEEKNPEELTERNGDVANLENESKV
Assay: concentration-response, whole-cell patch clamp in HEK-293 cells expressing GIRK1/2
Type: cell-based, human GIRK1, mouse GIRK2
Parameters: expressed in transfected cells
Settings: FIGS. 5A-5C
Protocol: Culture of HEK293 cells: HEK293-T cells were obtained from ATCC and maintained in DMEM medium supplemented with 10% FBS and 1% penicillin and streptomycin (Hyclone). For patch-clamp studies, cells were seeded on glass coverslips and transfected 24-hours later using a polyethylenimine solution (1 mg/ml) at a ratio of 8 μl per μg of DNA. To study GIRK-currents, cells were transfected with 0.75 μg each of plasmids encoding GIRK1, GIRK2 or GIRK4 as indicated. In the optogenetic experiments, cells were co-transfected with plasmids encoding 5-ptaseOCRL and CIBN-CAAX, as previously described. 5-ptaseOCRL and CIBN-CAAX were a kind gift from the DeCamilli lab, Yale CT. All experiments were performed at room temperature 24-36 hours post transfection.
Patch-clamp recording: Whole-cell currents were recorded with an Axopatch 200B amplifier (Molecular Devices) controlled via a USB-interface (National Instruments) using WinWCP software (University of Strathclyde). […] The barium-sensitive component of the current, observed when cells were perfused with the high-K^+ buffer, was analyzed and was determined by perfusing 5 mM BaCl2 in the high-K^+ buffer at the end of each experiment. […]
Patch-clamp recording: Whole-cell currents were recorded with an Axopatch 200B amplifier (Molecular Devices) controlled via a USB-interface (National Instruments) using WinWCP software (University of Strathclyde). […]

Cc1cc(NC(=O)Nc2ccc(Br)s2)n(-c2ccccc2)n1 [GAT1508, 1-(5-bromothiophen-2-yl)-3-(3-methyl-1-phenyl-1H-pyrazol-5-yl)urea]
potency and efficacy compared to ML297 or GAT1521 (in words): highest potency and efficacy
